Read-outs that look alike come from different tables or passages of the source.
Experiments:
PARP-1 = molecular target: T1, PARP-1 (Homo sapiens, UniProt P09874); test: PARP-1 activity assay (HT Universal chemiluminescent PARP Assay Kit); type: biochemical; settings: 0.5 unit/well PARP-1, 25° C., 45 minutes; read-out: PARP1 enzyme IC50
T1 construct: purchased Trevigen
Method: PARP-1 activity was determined using a HT Universal chemiluminescent PARP Assay Kit (Trevigen, Gaithersburg, Md., USA). The assay was to measure the incorporation of biotinylated poly(ADP-ribose) onto histone proteins catalyzed by PARP-1 upon activation with DNA. Experimental procedures were followed according to the instruction provided with the assay kit. In brief, PARP-1 (0.5 unit/well) was incubated with activated DNA and NAD^+ in reaction buffer in the presence or absence of test articles in histone-coated strip wells at 25° C. for 45 minutes. After incubation, the strip wells were incubated with Strep-HRP at 25° C. for 60 minutes after washes with PBS containing 0.1% Triton X-100. The chemiluminescence was measured with a Victor X5 2030 Multilabel Reader (Perkin Elmer) immediately after the addition of PeroxyGlow™ to the strip wells. IC50 value was calculated using median-effect method (Chou, T. C. (2006). Pharmacol. Rev. 58(3): 621-681).

MDA-MB-436 cells = test: Cell proliferation assay (MTS, 7 days); type: cell-based; settings: Homo sapiens
Method: Cell Proliferation Assay:
MDA-MB-436 cells were purchased from American Type Culture Collection (USA). Cells were maintained at 37° C. in a humidified atmosphere with 5% CO2. For proliferation test, MDA-MB-436 cells were seeded in 96-well plates at low density in RPMI-1640 medium supplemented with 10% FBS and incubated for 24 h at 37° C. in a humidified atmosphere with 5% CO2. Cells were further incubated in fresh medium in the presence or absence of the test articles at 37° C. for 7 days. The proliferation of cells was measured with a 3-(4,5-dimethylthiazol-2-yl)-5-(3-carboxymethoxyphenyl)-2-(4-sulfophenyl)-2H-tetrazolium (MTS) assay using a CellTiter 96® Aqueous Non-Radioactive Cell Proliferation kit (Promega). The absorbance at 490 nm (A490) was determined with a Victor X5 2030 Multilabel Reader (Perkin Elmer). IC50 value was calculated using median-effect method (Chou, T. C. (2006). Pharmacol. Rev. 58(3): 621-681).

[1] = Pharmacokinetic assay, intravenous and oral administration; type: in vivo, Sprague-Dawley rats; settings: after oral administrations in rats; for half-life: Sprague-Dawley, rat, plasma, read-out: t½
Method: The tested articles were given to Sprague-Dawley rats by intravenous and oral administration. Plasma samples were prepared from blood samples which were collected at various time points. The plasma concentrations of the tested articles were determined by specific LC-MS/MS analytical methods. Pharmacokinetic parameters were calculated with WinNonlin®.

[2] = 168 h, MDA-MB-436 cells, 7 days, MTS, read-out: MDA-MB-436 cells EC50

T1 sequence (P09874 whole entry): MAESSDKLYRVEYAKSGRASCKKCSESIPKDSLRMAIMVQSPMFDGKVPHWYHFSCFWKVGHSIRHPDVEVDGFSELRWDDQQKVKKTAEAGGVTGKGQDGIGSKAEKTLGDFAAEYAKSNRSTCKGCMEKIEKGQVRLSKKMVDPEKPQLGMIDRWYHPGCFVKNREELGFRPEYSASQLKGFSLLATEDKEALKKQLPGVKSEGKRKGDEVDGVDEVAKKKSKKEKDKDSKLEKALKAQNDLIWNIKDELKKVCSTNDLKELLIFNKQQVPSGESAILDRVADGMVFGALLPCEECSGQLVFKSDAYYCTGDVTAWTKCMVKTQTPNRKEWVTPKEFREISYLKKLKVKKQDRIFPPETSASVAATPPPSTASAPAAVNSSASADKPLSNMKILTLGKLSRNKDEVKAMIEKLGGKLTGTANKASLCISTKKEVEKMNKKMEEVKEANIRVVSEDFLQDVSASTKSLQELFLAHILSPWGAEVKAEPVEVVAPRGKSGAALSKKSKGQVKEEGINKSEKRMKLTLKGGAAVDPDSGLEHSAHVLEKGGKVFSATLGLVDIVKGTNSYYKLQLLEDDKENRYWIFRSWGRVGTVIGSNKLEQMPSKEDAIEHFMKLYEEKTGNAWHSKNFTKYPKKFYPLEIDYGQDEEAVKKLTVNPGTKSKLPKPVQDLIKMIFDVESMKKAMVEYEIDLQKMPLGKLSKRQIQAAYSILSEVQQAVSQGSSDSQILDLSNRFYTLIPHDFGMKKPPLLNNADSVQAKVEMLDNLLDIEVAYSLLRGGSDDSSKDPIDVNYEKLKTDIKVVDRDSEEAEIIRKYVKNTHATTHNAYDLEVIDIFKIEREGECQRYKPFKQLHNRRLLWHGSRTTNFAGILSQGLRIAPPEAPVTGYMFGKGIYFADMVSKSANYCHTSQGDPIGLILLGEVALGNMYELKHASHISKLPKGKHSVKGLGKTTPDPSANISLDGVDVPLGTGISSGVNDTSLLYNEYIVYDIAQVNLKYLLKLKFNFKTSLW

SMILES | IC50 (PARP-1) [nM] | EC50 (MDA-MB-436 cells; [2]) [µM] | half-life [1] [h] | bioavailability (in words) [1] | EC50 (MDA-MB-436 cells; MDA-MB-436, 168 h, read-out: MDA-MB-436 cells EC50 (μM)) [µM]
O=C(c1cc(Cn2c(=O)[nH]c(=O)c3ccccc32)ccc1F)N1CC=C(c2ccc(F)cc2)CC1 [Example 29] | 0.1 to 10 | 1 to 100 |  |  | 
O=C(c1cc(Cn2c(=O)[nH]c(=O)c3ccccc32)ccc1F)N1Cc2cccnc2C1 [Example 25] | 0.1 to 10 | > 0.01 | > 2 | bioavailable | 
O=C(c1cc(Cn2c(=O)[nH]c(=O)c3ccccc32)ccc1F)N1CCN(C(=O)C2CC2)CC1 [Example 1] | 0.1 to 10 |  |  |  | > 0.01
O=C(c1cc(Cn2c(=O)[nH]c(=O)c3ccccc32)ccc1F)N1CCC(n2cc(Br)cn2)CC1 [Example 14] | 0.1 to 10 | > 0.01 |  |  | 
CCNC(=O)OC1CCN(C(=O)c2cc(Cn3c(=O)[nH]c(=O)c4ccccc43)ccc2F)CC1 [Example 19] | > 10 | 1 to 100 |  |  | 
O=C(c1cc(Cn2c(=O)[nH]c(=O)c3ccccc32)ccc1F)N1CCC(n2cccn2)CC1 [Example 15] | 0.1 to 10 | 1 to 100 |  |  | 
O=C(c1cccc(Cn2c(=O)[nH]c(=O)c3ccccc32)c1)N1CCN(C(=O)C2CC2)CC1 [Example 2] | 0.1 to 10 | 1 to 100 |  |  | 
O=C(NC1CC1)C1CCN(C(=O)c2cc(Cn3c(=O)[nH]c(=O)c4ccccc43)ccc2F)CC1 [Example 21] | > 10 | 1 to 100 |  |  | 
O=C(c1cc(Cn2c(=O)[nH]c(=O)c3ccccc32)ccc1F)N1CCC(Oc2ccccn2)CC1 [Example 12] | 0.1 to 10 | 0.0001 to 0.01 |  |  | 
O=C(c1cc(Cn2c(=O)[nH]c(=O)c3ccccc32)ccc1F)N1CCN(c2ncccn2)CC1 [Example 28] | 0.1 to 10 | 0.0001 to 0.01 |  |  | 
O=C(c1cc(Cn2c(=O)[nH]c(=O)c3ccccc32)ccc1F)N1Cc2cccc(F)c2C1 [Example 24] | 0.1 to 10 | > 0.01 |  |  | 
O=C(O)C1CCN(C(=O)c2cc(Cn3c(=O)[nH]c(=O)c4ccccc43)ccc2F)CC1 [Example 20] | > 10 |  |  |  | 
O=C(c1cc(Cn2c(=O)[nH]c(=O)c3ccccc32)ccc1F)N1CCC(ON=C2CCc3ccccc32)CC1 [Example 22] | > 10 |  |  |  | 
O=C(c1cc(Cn2c(=O)[nH]c(=O)c3ccccc32)ccc1F)N1CCC(OC(F)F)CC1 [Example 11] | 0.1 to 10 | 1 to 100 |  |  | 
COC(=O)C1CCN(C(=O)c2cc(Cn3c(=O)[nH]c(=O)c4ccccc43)ccc2F)CC1 [Example 18] | 0.1 to 10 | 1 to 100 |  |  | 
O=C(c1cc(Cn2c(=O)[nH]c(=O)c3ccccc32)ccc1F)N1Cc2nccnc2C1 [Example 26] | 0.1 to 10 | > 0.01 |  |  | 

More lines, main results first:

IC50 (PARP-1) [nM] | EC50 (MDA-MB-436 cells; [2]) [µM] | half-life [1] [h] | bioavailability (in words) [1] | SMILES | EC50 (MDA-MB-436 cells; MDA-MB-436, 168 h, read-out: MDA-MB-436 cells EC50 (μM)) [µM]
0.1 to 10 | > 0.01 |  |  | Cc1cnc(C(=O)N2CCN(C(=O)c3cc(Cn4c(=O)[nH]c(=O)c5ccccc54)ccc3F)CC2)cn1 [Example 33] | 
0.1 to 10 | > 0.01 |  |  | Cc1nc(C)c(C(=O)N2CCN(C(=O)c3cc(Cn4c(=O)[nH]c(=O)c5ccccc54)ccc3F)CC2)o1 [Example 37] | 
0.1 to 10 | > 0.01 |  |  | CCOC(=O)N1CCN(C(=O)c2cc(Cn3c(=O)[nH]c(=O)c4ccccc43)ccc2F)CC1 [Example 41] | 
0.1 to 10 | > 0.01 |  |  | O=C(c1cnco1)N1CCN(C(=O)c2cc(Cn3c(=O)[nH]c(=O)c4ccccc43)ccc2F)CC1 [Example 34] | 
0.1 to 10 | > 0.01 |  |  | CC1(C(=O)N2CCN(C(=O)c3cc(Cn4c(=O)[nH]c(=O)c5ccccc54)ccc3F)CC2)CCCN1 (stereo in doubt) [Example 40, (R)-1-(4-fluoro-3-(4-(2-methylpyrrolidine-2-carbonyl)piperazine-1-carbonyl)benzyl)quinazoline-2,4(1H,3H)-dione] | 
0.1 to 10 | > 0.01 |  |  | O=C(c1ccccn1)N1CCN(C(=O)c2cc(Cn3c(=O)[nH]c(=O)c4ccccc43)ccc2F)CC1 [Example 30] | 
0.1 to 10 |  |  |  | O=C(c1cc(Cn2c(=O)[nH]c(=O)c3ccccc32)ccc1F)N1CCNCC1 [Example 30b, 1-(4-fluoro-3-(piperazine-1-carbonyl)benzyl)quinazoline-2,4(1H,3H)-dione hydrochloric acid] | 
0.1 to 10 | > 0.01 |  |  | CC1(C(=O)N2CCN(C(=O)c3cc(Cn4c(=O)[nH]c(=O)c5ccccc54)ccc3F)CC2)CCCO1 (stereo not shown) [Example 39] | 
0.1 to 10 | > 0.01 | > 2 | bioavailable | O=C(c1cc(Cn2c(=O)[nH]c(=O)c3ccccc32)ccc1F)N1CCN(C(=O)C2CCCO2)CC1 (stereo not shown) [Example 38] | 
0.1 to 10 | > 0.01 |  |  | Cc1cc(C(=O)N2CCN(C(=O)c3cc(Cn4c(=O)[nH]c(=O)c5ccccc54)ccc3F)CC2)no1 [Example 35] | 
> 10 | 1 to 100 |  |  | O=C(c1cc(Cn2c(=O)[nH]c(=O)c3ccccc32)ccc1F)N1CCCCC1 [Example 4] | 
0.1 to 10 | > 0.01 |  |  | O=C(OC1CCCC1)N1CCN(C(=O)c2cc(Cn3c(=O)[nH]c(=O)c4ccccc43)ccc2F)CC1 [Example 42] | 
0.1 to 10 | 1 to 100 |  |  | O=C(c1cc(Cn2c(=O)[nH]c(=O)c3ccccc32)ccc1Cl)N1CCN(C(=O)C2CC2)CC1 [Example 3] | 
0.1 to 10 | > 0.01 |  |  | Cc1cc(C(=O)N2CCN(C(=O)c3cc(Cn4c(=O)[nH]c(=O)c5ccccc54)ccc3F)CC2)on1 [Example 36] | 
0.1 to 10 | > 0.01 |  |  | O=C(c1ccno1)N1CCN(C(=O)c2cc(Cn3c(=O)[nH]c(=O)c4ccccc43)ccc2F)CC1 [Example 31] | 
0.1 to 10 | > 0.01 |  |  | O=C(c1cnccn1)N1CCN(C(=O)c2cc(Cn3c(=O)[nH]c(=O)c4ccccc43)ccc2F)CC1 [Example 32] | 
0.1 to 10 | > 0.01 |  |  | O=C(c1cc(Cn2c(=O)[nH]c(=O)c3ccccc32)ccc1F)N1CCC(N2CCCC2)CC1 [Example 17] | 

Source: patent publication US9090568B2, “Quinazolinediones and their use” (IMPACT Therapeutics, Inc., priority 2011, dated 2015)
